Data: patent US5744462A, “Steroids useful as anti-cancer and anti-obesity agents” (Research Corporation Technologies, Inc., priority 1995, dated 1998)
Values joined by “and” are separate entries in the source; they are usually repeats but may differ in a detail not shown here. Equal entries are not always repeated. “Also recorded” adds a separate entry of the source.

Key:
[1] = biological target: purified bovine adrenal G6PDH (Bos taurus, UniProt F1MMK2); assay: G6PDH inhibition test; assay type: biochemical; conditions: individual determinations; for inhibition at 10 µM / inhibition at 1 µM / inhibition at 0.1 µM: read-out: Percent Inhibition of G6PDH
Source text: The compound listed below are screened as inhibitors of purified bovine adrenal G6PDH activity as one predictor of cancer preventive action. The assay for testing the inhibition of purified bovine adrenal G6PDH is according to the procedure by Oertell, G. W. and Rebelein, I. in Biochem. Biophys. Acta, 184, 459-460 (1969).

[2] = test system: mouse epidermis (TPA stimulated 3H-thymidine incorporation); assay: TPA stimulation of 3H-thymidine incorporation in mouse epidermis, oral steroid; assay type: in vivo, mouse (male ICR)
Method: (§1) Tumor promoters, such as TPA, stimulate hyperplasia and DNA synthesis when applied to the skin, and it is believed that this stimulation is an important step in the enhancement of tumorigenesis.
Male ICR mice were orally intubated with steroid suspended in sesame oil (0.5 ml/mouse) at the indicated dose. Mice not receiving steroid were given sesame oil alone. One hour later mice received topical application of TPA and 20 hours later the rate of ^3 H-thymidine incorporation into the epidermis was determined as described in Pashko, L. L., Schwartz, A. G., Abou-Gharbia, M., and Swern, D. (1981), Inhibition of DNA synthesis in mouse epidermis and breast epithelium by dehydroepiandrosterone and related steroids, Carcinogenesis, 2,-717-721.
Experimental conditions are the same as in Table 3.

mouse skin DNA = assay: (3H) DMBA binding to skin DNA; assay type: in vivo, mouse (A/J); conditions: for effect on 3H-DMBA binding to skin DNA: oral, mice, doses well below 400 mg/kg
[3] = Liver weight after three weeks of diet treatment; assay type: in vivo, mouse (female Balb/c); conditions: 0.25% of diet; for LIVER WEIGHT: control 0.057 ± 0.006, DHEA p < 0.05, clofibrate p < 0.002 vs control; for liver weight, in words: mice
Method: (§2) Female Balb/c mice were housed in polycarbonate cages (6/mice/cage) in animal quarters maintained at 24°±1° C. with 12 hours of light and 12 hours of dark each day. The mice were placed on a diet containing either DHEA, 8354, A, B clofibrate or with no addition. Three weeks later the mice were killed, the livers were perfused with cold saline, weighed, and 5% liver homogenates were prepared for the determination of catalase activity by the spectrophotometric method of Luck (H. Luck, in Method in Enzyme Analysis, H. U. Bergmeyer, Ed. (Verlag Chemie, Weinheim/Bergstrasse, Germany, 1965)). Total protein was measured by the method of Lowry, et al. (O. H. Lowry, N. J. Rosebrough, A. L. Farr, R. J. Randall, J. Biol. Chem., 193, 265 (1951)).

liver catalase = assay: Liver catalase activity after three weeks of diet treatment; assay type: in vivo, mouse (female Balb/c); conditions: for CATALASE ACTIVITY / catalase activity, in words: 0.25% of diet; for CATALASE ACTIVITY: control 31.1 ± 6.7, DHEA p < 0.05, clofibrate p < 0.001 vs control; for catalase activity, in words: mice
Method: as §2

[4] = Estrogenic / androgenic side-effects, general statements; conditions: in vivo
[5] = in vivo; cited from earlier work
[6] = Estrogenic and anti-estrogenic activity, uterine weight; assay type: in vivo, rat (female CD); conditions: 60 mg/kg s.c. for 3 days; control 2.02 ± 0.28; DHEA significantly greater than control, p < .001
Method: Estrogenic and Anti-Estrogenic Activity
Female CD rats, 26-27 days old, were injected subcutaneously for 3 days with one of the compounds of the present invention at 60 mg/kg in propylene glycol. Controls received propylene glycol alone. On the 4th day, the rats were killed and the uteri were dissected out and weighed.

[7] = Anti-obesity action, body weight, male A/J mice; assay type: in vivo, mouse (male A/J); conditions: 0.45% in diet
Method: Male A/J (5 weeks old) mice were obtained from the
Jackson Laboratory and were housed in polycarbonate cages (6
mice/cage) in animal quarters maintained at 24 ± 1° C. with 12
hours of light and 12 hours of darkness each day. One week
after arrival, the mice were placed on a diet containing
either DHEA, 8353, or without steroid. Animals were weighed

[8] = test system: mouse epidermal DNA (TPA stimulated 3H-thymidine incorporation); assay: TPA stimulation of 3H-thymidine incorporation in epidermis, topical steroid; assay type: in vivo, mouse (A/J); conditions: no steroid 66, TPA alone 174
Method: as §1
Incorporation of ^3 H-thymidine into A/J mouse epidermal DNA was determined as described in Pashko, L. L., Schwartz, A. G., Abou-Gharbia, M. and Swern, D. (1981), Inhibition of DNA synthesis in mouse epidermis and breast epithelium by dehydroepiandrosterone and related steroids, Carcinogenesis, 2, 717-721. Values are mean±SD for 3 separately treated mice in each group 20 hours after TPA application. DHEA or testosterone was added topically in 0.2 ml acetone one hour before TPA addition.

[9] = Body weight and food consumption in the DMBA binding experiment; assay type: in vivo, mouse; conditions: two weeks of feeding
Method: Binding of [^3 H]DMBA to mouse skin DNA was determined as described in Pashko, L. L., and Schwartz, A. G. (1983), Effect of food restriction, dehydroepiandrosterone, or obesity on the binding of ^3 H-7,12-dimethylbenz(a)anthracene to mouse skin DNA, J. Gerontol., 38, 8-12. Values are mean±SD for 3 individual determinations, with pooled tissue from 2 mice used for each determination. DHEA or testosterone (400 ug in 0.2 ml acetone) was applied to the skin one hour before [^3 H]DMBA. The mean weight of the food restricted mice was 18.5±1.0 gm, n=6, of the ad libitum fed, 27.4±1.0 gm, n=6, of the ad libitum fed treated with DHEA, 28.2±0.9 gm, n=6, and of the ad libitum fed treated with testosterone, 28.3±0.9 gm, n=6, following two weeks of feeding. The average food consumed was, in gm/mouse/day, 2.2, 3.8, 3.8 and 4.0 for the food restricted, ad libitum fed, ad libitum fed plus DHEA, and ad libitum fed plus testosterone groups, respectively.

Sequence of purified bovine adrenal G6PDH (F1MMK2 31-70): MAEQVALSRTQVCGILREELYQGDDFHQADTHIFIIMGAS
Sequence of purified bovine adrenal G6PDH (F1MMK2 101-575): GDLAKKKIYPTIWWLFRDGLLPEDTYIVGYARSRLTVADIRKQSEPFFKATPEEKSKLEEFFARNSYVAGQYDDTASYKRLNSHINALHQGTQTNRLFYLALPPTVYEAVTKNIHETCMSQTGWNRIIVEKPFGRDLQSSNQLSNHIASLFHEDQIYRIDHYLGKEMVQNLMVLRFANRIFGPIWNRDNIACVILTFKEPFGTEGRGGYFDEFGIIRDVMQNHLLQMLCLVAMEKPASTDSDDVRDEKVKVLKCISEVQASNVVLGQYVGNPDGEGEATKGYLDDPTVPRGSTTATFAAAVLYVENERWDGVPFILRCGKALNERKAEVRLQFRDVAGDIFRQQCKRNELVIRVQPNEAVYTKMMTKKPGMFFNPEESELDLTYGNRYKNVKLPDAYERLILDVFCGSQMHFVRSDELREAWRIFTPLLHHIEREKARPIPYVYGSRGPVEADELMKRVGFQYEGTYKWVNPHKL

In the case of `C[C@]12CCCC[C@@H]1CC[C@@H]1[C@@H]2CC[C@]2(C)C(=O)[C@H](O)C[C@@H]12` [A], the “Percent Inhibition of G6PDH” value ([1]; 10^-5 M) is reported as 92% and 91%, the inhibition at 10 µM ([1]; 10^-5 M) is reported as 94% and the inhibition at 1 µM ([1]; 10^-6 M) is reported as 72%. The “Percent Inhibition of G6PDH” value ([1]; 10^-7 M) was 25%, the inhibition at 0.1 µM ([1]; 10^-7 M) was 17% and the “SPECIFIC ACTIVITY, TPA stimulated 3H-thymidine incorporation” value ([2]; Table 3, oral 25 mg/kg, no steroid 70.2, TPA alone 154) was 77.4 ± 10.4 cpm/ug DNA. For the same compound, the “SPECIFIC ACTIVITY, TPA stimulated 3H-thymidine incorporation” value ([2]; Table 3, oral 50 mg/kg, no steroid 70.2, TPA alone 154) was 35.2 ± 1.8 cpm/ug DNA, the “SPECIFIC ACTIVITY, TPA stimulated 3H-thymidine incorporation” value ([2]; Table 3, oral 100 mg/kg, no steroid 70.2, TPA alone 154) was 8.1 ± 4.1 cpm/ug DNA and the “effect on 3H-DMBA binding to skin DNA” value (mouse skin DNA) was “inhibit ^3 H-DMBA binding to skin DNA”. The “LIVER WEIGHT” value [3] was 0.058 ± 0.004 gm/gm body weight, the “liver weight, in words” value [3] was “no effect on liver weight; also recorded: neither increased liver weight” and the “CATALASE ACTIVITY” value (liver catalase) was 42.3 ± 7.2 Units per mg protein. The “catalase activity, in words” value (liver catalase) was “no effect on liver weight or catalase activity” and the “estrogenic and androgenic side-effects” value [4] was “lacking the estrogenic and androgenic side-effects of DHEA”.

For `C[C@@H]1C[C@H]2[C@@H]3CC=C4CCCC[C@]4(C)[C@H]3CC[C@]2(C)C1=O` [C], the “Percent Inhibition of G6PDH” value ([1]; 10^-5 M) was 52%, the inhibition at 10 µM ([1]; 10^-5 M) was 54% and the “Percent Inhibition of G6PDH” value ([1]; 10^-6 M) was 31%. For the same compound, the inhibition at 1 µM ([1]; 10^-6 M) was 33%, the “Percent Inhibition of G6PDH” value ([1]; 10^-7 M) was 24% and the inhibition at 0.1 µM ([1]; 10^-7 M) was 20%.

With `CCOC(=O)C(C)(C)Oc1ccc(Cl)cc1` [Clofibrate, clofibrate, reference compound] the “LIVER WEIGHT” value [3] was 0.084 ± 0.006 gm/gm body weight, the “liver weight, in words” value [3] was “increased liver weight; also recorded: hepatomegaly” and the “CATALASE ACTIVITY” value (liver catalase) was 92.1 ± 8.9 Units per mg protein. For the same compound, the “increase in liver catalase specific activity” value (liver catalase; 0.25%, vs control) was “threefold”, the “catalase activity, in words” value (liver catalase) was “stimulated catalase activity” and the “effect on liver (type of hepatomegaly)” value [5] was “Typical peroxisome proliferators”.

For `C[C@]12CCCCC1=CC[C@@H]1[C@@H]2CC[C@]2(C)C(=O)[C@H](O)C[C@@H]12` [Compound 8353], the inhibition at 10 µM ([1]; 10^-5 M) was 77%, the “Percent Inhibition of G6PDH” value ([1]; 10^-6 M) was 36% and 29% and 38% and the inhibition at 1 µM ([1]; 10^-6 M) was 30%. The “Mean Uterine Weight ± S.D.” value [6] was 2.15 ± 0.17 mg/100 gm body weight, the “SPECIFIC ACTIVITY, TPA stimulated 3H-thymidine incorporation” value ([2]; Table 8, 75 mg/kg, p.o.) was 15.9 ± 2.4 cpm/ug DNA and the “SPECIFIC ACTIVITY, TPA stimulated 3H-thymidine incorporation” value ([2]; Table 8, 150 mg/kg, p.o.) was 14.0 ± 1.1 cpm/ug DNA. For the same compound, the “SPECIFIC ACTIVITY, TPA stimulated 3H-thymidine incorporation” value ([2]; Table 8, 200 mg/kg, p.o.) was 14.3 ± 1.7 cpm/ug DNA, the “effect on 3H-DMBA binding to skin DNA” value (mouse skin DNA) was “inhibit ^3 H-DMBA binding to skin DNA” and the “mean weekly weight ± S.D.” value ([7]; week 0, control 23 ± 1.5) was 23.3 ± 1.6 grams. The “mean weekly weight ± S.D.” value ([7]; week 1, control 25.0 ± 1.6) was 21.1 ± 1.4 grams, the “mean weekly weight ± S.D.” value ([7]; week 2, control 27.0 ± 1.6) was 21.9 ± 1.0 grams and the “mean weekly weight ± S.D.” value ([7]; week 3, control 27.3 ± 1.6) was 23.6 ± 1.5 grams. The “mean weekly weight ± S.D.” value ([7]; week 4, control 27.5 ± 1.9) was 23.5 ± 1.5 grams.

In the case of `Clc1ccc(C(c2ccc(Cl)cc2)C(Cl)(Cl)Cl)cc1` [DDT], the “effect on liver (type of hepatomegaly)” value [5] is listed as “stimulate proliferation of smooth endoplasmic reticulum in liver cells and induce microsomal drug metabolizing enzymes”.

With `C[C@H]1C[C@H]2[C@@H]3CC=C4CCCC[C@]4(C)[C@H]3CC[C@]2(C)C1=O` [D] the “Percent Inhibition of G6PDH” value ([1]; 10^-5 M) was 47%, the inhibition at 10 µM ([1]; 10^-5 M) was 44% and the “Percent Inhibition of G6PDH” value ([1]; 10^-6 M) was 20%. For the same compound, the inhibition at 1 µM ([1]; 10^-6 M) was 13%.

For `C[C@]12CCCCC1=CC[C@@H]1[C@@H]2CC[C@]2(C)C(=O)[C@](C)(F)C[C@@H]12` [F], the inhibition at 10 µM ([1]; 10^-5 M) was 82%, the “Percent Inhibition of G6PDH” value ([1]; 10^-6 M) was 69% and the inhibition at 1 µM ([1]; 10^-6 M) was 66%. The “Percent Inhibition of G6PDH” value ([1]; 10^-7 M) was 34% and the inhibition at 0.1 µM ([1]; 10^-7 M) was 28%.

For `CCC1(c2ccccc2)C(=O)NC(=O)NC1=O` [phenobarbital], the “effect on liver (type of hepatomegaly)” value [5] is given as “stimulate proliferation of smooth endoplasmic reticulum in liver cells and induce microsomal drug metabolizing enzymes”.

With `C[C@]12CC[C@H]3[C@@H](CCC4=CC(=O)CC[C@@]43C)[C@@H]1CC[C@@H]2O` [testosterone] the “SPECIFIC ACTIVITY, TPA stimulated 3H-thymidine incorporation” value ([8]; topical 100 ug) was 128 ± 13 cpm/ug DNA, the “SPECIFIC ACTIVITY, TPA stimulated 3H-thymidine incorporation” value ([8]; topical 400 ug) was 142 ± 5.9 cpm/ug DNA and the “SPECIFIC ACTIVITY, (3H) DMBA binding to skin DNA” value (mouse skin DNA; 400 ug topical one hour before DMBA, ad libitum fed 116 ± 5.2) was 164 ± 8.4 cpm/ug DNA. For the same compound, the “effect on rate of binding of 3H-DMBA to skin DNA” value (mouse skin DNA; topical, in words (Table 4)) was “without inhibitory effect”, the mean body weight ([9]; topical 400 ug, ad libitum fed 27.4±1.0) was 28.3±0.9 gm and the average food consumed ([9]; ad libitum fed 3.8) was 4.0 gm/mouse/day.
